Among the data in ChEMBL document CHEMBL1201862, “PubChem BioAssay data set” (2004) are IC50 values, retold here.

The source made the active and inactive calls. Rule as the data show it: actives have a measured IC50 and inactives only a lower limit.

Holding throughout (assay type): functional
For assay [1], the target named is T1, Apoptotic protease-activating factor 1 (Homo sapiens, UniProt O14727).
T1 sequence (O14727 whole entry): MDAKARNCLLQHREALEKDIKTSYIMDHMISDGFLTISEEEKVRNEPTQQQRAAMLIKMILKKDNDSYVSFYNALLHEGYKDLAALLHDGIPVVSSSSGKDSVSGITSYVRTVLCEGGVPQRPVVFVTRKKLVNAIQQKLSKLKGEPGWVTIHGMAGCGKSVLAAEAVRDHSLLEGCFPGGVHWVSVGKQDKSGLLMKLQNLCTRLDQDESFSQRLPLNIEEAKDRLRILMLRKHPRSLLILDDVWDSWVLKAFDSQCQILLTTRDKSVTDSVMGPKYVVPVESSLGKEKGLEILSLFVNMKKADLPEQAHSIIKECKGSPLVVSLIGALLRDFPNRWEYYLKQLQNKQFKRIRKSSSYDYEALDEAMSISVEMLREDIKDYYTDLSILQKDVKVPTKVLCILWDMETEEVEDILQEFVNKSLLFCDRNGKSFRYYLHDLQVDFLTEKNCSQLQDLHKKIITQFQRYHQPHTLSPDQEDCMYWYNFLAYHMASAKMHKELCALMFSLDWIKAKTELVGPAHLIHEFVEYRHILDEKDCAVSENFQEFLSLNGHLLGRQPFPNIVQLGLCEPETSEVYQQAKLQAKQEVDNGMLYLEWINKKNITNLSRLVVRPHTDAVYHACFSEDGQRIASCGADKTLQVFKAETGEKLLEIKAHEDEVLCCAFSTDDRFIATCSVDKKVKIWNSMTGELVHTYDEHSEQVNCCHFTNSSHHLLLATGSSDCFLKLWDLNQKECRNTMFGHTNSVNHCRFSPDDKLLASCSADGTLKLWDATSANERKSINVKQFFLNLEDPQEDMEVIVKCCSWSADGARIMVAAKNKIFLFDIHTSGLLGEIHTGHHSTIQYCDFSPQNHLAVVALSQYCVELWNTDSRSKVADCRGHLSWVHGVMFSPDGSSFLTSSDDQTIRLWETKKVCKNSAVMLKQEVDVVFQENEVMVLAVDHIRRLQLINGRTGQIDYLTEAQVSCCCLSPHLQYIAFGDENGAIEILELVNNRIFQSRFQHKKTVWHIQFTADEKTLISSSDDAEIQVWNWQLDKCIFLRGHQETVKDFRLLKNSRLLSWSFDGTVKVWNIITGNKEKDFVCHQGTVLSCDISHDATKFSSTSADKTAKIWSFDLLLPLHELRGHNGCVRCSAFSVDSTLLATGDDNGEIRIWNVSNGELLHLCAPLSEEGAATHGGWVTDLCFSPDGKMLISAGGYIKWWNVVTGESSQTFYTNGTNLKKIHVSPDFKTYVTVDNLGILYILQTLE

Assay [2] addresses T2, Sentrin-specific protease 8 (Homo sapiens, UniProt Q96LD8).
T2 sequence (Q96LD8 whole entry): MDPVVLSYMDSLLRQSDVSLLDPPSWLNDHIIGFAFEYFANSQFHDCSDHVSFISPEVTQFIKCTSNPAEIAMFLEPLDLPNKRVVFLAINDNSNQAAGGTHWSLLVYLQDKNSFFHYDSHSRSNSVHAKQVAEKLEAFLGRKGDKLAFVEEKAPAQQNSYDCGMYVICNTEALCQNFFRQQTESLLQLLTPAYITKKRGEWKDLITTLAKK

Assay [3] deals with T3, Sentrin-specific protease 6 (Homo sapiens, UniProt Q9GZR1).
T3 sequence (Q9GZR1 whole entry): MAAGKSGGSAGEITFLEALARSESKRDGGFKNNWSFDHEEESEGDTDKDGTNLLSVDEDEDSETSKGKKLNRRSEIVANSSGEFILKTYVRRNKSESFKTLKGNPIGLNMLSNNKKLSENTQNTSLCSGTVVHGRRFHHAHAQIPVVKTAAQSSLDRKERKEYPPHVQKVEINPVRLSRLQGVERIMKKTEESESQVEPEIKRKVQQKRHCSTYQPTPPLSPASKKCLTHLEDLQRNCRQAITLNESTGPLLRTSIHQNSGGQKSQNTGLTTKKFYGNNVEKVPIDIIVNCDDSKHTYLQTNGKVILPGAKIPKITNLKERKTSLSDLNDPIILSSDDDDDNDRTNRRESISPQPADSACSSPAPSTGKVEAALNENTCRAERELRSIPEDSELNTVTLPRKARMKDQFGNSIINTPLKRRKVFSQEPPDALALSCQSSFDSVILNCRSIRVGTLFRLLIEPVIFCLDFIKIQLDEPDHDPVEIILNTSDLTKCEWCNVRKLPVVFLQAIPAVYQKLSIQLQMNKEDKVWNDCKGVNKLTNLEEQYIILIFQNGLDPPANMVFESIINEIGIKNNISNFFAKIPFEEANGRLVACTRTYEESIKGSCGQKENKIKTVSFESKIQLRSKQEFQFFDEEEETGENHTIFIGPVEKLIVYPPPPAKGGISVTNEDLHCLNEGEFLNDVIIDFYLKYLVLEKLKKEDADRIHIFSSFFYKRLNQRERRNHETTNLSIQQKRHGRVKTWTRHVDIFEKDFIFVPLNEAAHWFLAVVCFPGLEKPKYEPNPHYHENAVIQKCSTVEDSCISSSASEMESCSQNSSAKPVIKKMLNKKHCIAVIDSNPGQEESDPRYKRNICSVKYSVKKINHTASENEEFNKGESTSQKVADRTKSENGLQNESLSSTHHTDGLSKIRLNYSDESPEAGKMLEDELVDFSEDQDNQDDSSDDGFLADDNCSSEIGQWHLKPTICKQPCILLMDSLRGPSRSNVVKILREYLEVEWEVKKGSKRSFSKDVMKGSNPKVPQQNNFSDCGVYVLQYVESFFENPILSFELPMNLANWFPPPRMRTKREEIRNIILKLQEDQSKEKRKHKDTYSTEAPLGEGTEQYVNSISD

As for `Oc1ccc(/C=N/Nc2cc(N3CCCC3)nc(N3CCCC3)n2)cc1`, the half-inhibitory concentration (IC50) was 707 nM (active) in assay [1], 22100 nM (active) in assay [2] and 6050 nM (active) in assay [3].

In the case of `COc1ccc(S(=O)(=O)/N=C2\C=C(Nc3ccc(O)cc3)C(=O)c3ccccc32)cc1`, the concentration for half-maximal inhibition (IC50) in assay [1] was 441 nM (active).

`COc1ccc(/C=N/Nc2cc(N3CCCC3)nc(N3CCCC3)n2)cc1`: the values for the half-maximal inhibitory concentration (IC50) in assay [1], in assay [2] and in assay [3] were 2630 nM (active), 7520 nM (active) and 2710 nM (active), respectively.
